Measurements from patent US5236900A, “Anti-fungal agents” (Schering Corporation, priority 1991, dated 1993).

Tests used:
[1] = system: Resistant strains: Candida albicans C79, C6, C8, C31, C54, C70, C104, C138, C140; Candida stellatoidea C45; assay: Microtiter minimum inhibitory concentration (MIC) test, resistant strains; format: cell-based; details: geometric mean of MICs against resistant strains; YNB pH 5.4, 37° C., 48 hours
Method: (§1) In vitro anti-fungal activity was determined in microtiter minimum inhibitory concentration (MIC) tests using Yeast Nitrogen Broth (YNB without amino acids, Difco., Detroit, Mich.) at pH 5.4. Yeasts were grown overnight in Sabouraud Dextrose Broth at 28° C. with shaking, and concentrations adjusted in sterile saline using a spectrophoptometer at 540 mμ. Compounds were dissolved in various vehicles and diluted in media to twice the final concentrations. The Cetus Pro/Pette system was used to serially dilute 50 μl in round bottom 96 well plates (Falcon, Lincoln Park, N.J.). The turbidometrically adjusted yeast suspensions were diluted 1:3,000 in YNB. These dilutions when added to the wells, produced a final inoculum of 3×10^3 /ml. Plates were incubated at 37° C. for 48 hours. MICs were defined as the lowest concentrations of compound that prevented visible growth. MICs were taken against the following organisms and expressed in the table above as the geometric mean.

[2] = system: Sensitive strains: Candida albicans C141, Candida sp. C2, Candida sp. C109, Candida parapsilosis C67, Candida tropicalis C112, Torulopsis glabrata C95, Candida …; assay: Microtiter minimum inhibitory concentration (MIC) test, sensitive strains; format: cell-based, Candida spp., Sacchararomyces; details: geometric mean of MICs against sensitive strains; YNB pH 5.4, 37° C., 48 hours
Method: as §1
Candida pseudotropicalis C 967
Candida guillermondii C137
Sacchararomyces mutant C147

Substance: 6'-Dodecylamido-5-N-L-Valinyl-UPOC [Compound 3]
- MIC-R [1]: 17 µg/mL
- MIC-S [2]: 26 µg/mL
